Data taken from ChEMBL document CHEMBL3400060, “Nucleobase modified neamines with a lysine as a linker, their inhibition specificity for TAR-Tat derived from HIV-1” (Bioorg Med Chem, 2015).

Experiments:
[1] = Binding affinity to HIV-1 RRE RNA by fluorescence anisotropy; set-up: species or system Human immunodeficiency virus 1
Nucleic Acid = assay: Binding affinity to HIV-1 TAR RNA by FRET assay; format: nucleic-acid assay, Human immunodeficiency virus 1

Compound | Kd [1] [nM] | Kd (Nucleic Acid) [nM]
NCCCC[C@H](N)C(=O)NC[C@H]1O[C@H](O[C@H]2[C@H](O)[C@@H](O)[C@H](N)C[C@@H]2N)[C@H](N)[C@@H](O)[C@@H]1O | 5700 | –
Nc1ncnc2c1ncn2CC(=O)NCCCC[C@H](N)C(=O)NC[C@H]1O[C@H](O[C@H]2[C@H](O)[C@@H](O)[C@H](N)C[C@@H]2N)[C@H](N)[C@@H](O)[C@@H]1O | 570 | 740
Nc1ccn(CC(=O)NCCCC[C@H](N)C(=O)NC[C@H]2O[C@H](O[C@H]3[C@H](O)[C@@H](O)[C@H](N)C[C@@H]3N)[C@H](N)[C@@H](O)[C@@H]2O)c(=O)n1 | 640 | 1400
Nc1nc2c(ncn2CC(=O)NCCCC[C@H](N)C(=O)NC[C@H]2O[C@H](O[C@H]3[C@H](O)[C@@H](O)[C@H](N)C[C@@H]3N)[C@H](N)[C@@H](O)[C@@H]2O)c(=O)[nH]1 | 530 | 240
Cc1cn(CC(=O)NCCCC[C@H](N)C(=O)NC[C@H]2O[C@H](O[C@H]3[C@H](O)[C@@H](O)[C@H](N)C[C@@H]3N)[C@H](N)[C@@H](O)[C@@H]2O)c(=O)[nH]c1=O | 570 | 860
NC[C@H]1O[C@H](O[C@H]2[C@H](O)[C@@H](O)[C@H](N)C[C@@H]2N)[C@H](N)[C@@H](O)[C@@H]1O [NEAMINE] | 5400 | –
